Patent US10189845B2, “4,6-substituted-pyrazolo[1,5-a]pyrazines as janus kinase inhibitors” (ARRAY BIOPHARMA INC., priority 2014, dated 2019)
Read-outs that look alike come from different tables or passages of the source.

Experiments:
Assay type in all cases: biochemical
JAK1 = JAK1 (Homo sapiens (Human), UniProt P23458); assay: JAK1 Inhibition Assay (Example B, Omnia kinase fluorescence peptide substrate assay)
Description: (§1) The assays described in Examples A, B, C and D for the determination of Tyk2, JAK1, JAK2 and JAK3 kinase activity, respectively, utilized the Omnia® Kinase fluorescence peptide substrate-based technology (Invitrogen). The specific components of the assay mixture are described in Examples A, B, C and D. In these assays, Mg^2+ is chelated upon phosphorylation of the Omnia peptide by the kinase to form a bridge between the chelation-enhanced fluorophore Sox and the phosphate, resulting in an increase in fluorescence emission at 485 nm when excited at […]. The reactions were therefore read at excitation 360 nm and emission was measured at 485 nm every 50 seconds for 45 minutes using a PerkinElmer EnVision Multilabel Plate Reader.
(§2) The final buffer conditions for Tyk2, JAK1, JAK2, and JAK3 assays were as follows: 25 mM HEPES, pH 7.4, 10 mM MgCl2, 0.01% Triton X-100 and 1 mM DTT.
(§3) Two-μL aliquots of these were transferred to a fresh plate for a ten-fold intermediate dilution with assay buffer. Five-μL aliquots of the diluted compounds were then transferred to 20-μL of assay mixtures described in Examples A, B, C and D for a final concentration of DMSO of 2%. […] For each plate, percent of control (POC) values were calculated for each well according to the following equation: […]
(§4) IC50's were estimated from the POC's using a standard 4-parameter logistic model:
(§5) The IC50 is defined as the concentration of inhibitor at which the POC equals 50 for the fitted curve.
(§6) Compounds of Formula I were screened for their ability to inhibit JAK1 using the general enzyme inhibition assay method, in which the assay mixture contained 1 mM ATP, 8 μM Omnia® Y12 peptide (Catalog # IVGN KPZ3121C; Invitrogen Corporation, Carlsbad, Calif.) and 12.5 nM JAK1 in a total volume of 25 μL. JAK1 was purchased from Invitrogen Corporation, Carlsbad, Calif. (catalog # IVGN PV4775).

JAK3 = JAK3 (Homo sapiens (Human), UniProt P52333); assay: JAK3 Inhibition Assay (Example D, Omnia kinase fluorescence peptide substrate assay)
Sequence of JAK3 (P52333 whole entry): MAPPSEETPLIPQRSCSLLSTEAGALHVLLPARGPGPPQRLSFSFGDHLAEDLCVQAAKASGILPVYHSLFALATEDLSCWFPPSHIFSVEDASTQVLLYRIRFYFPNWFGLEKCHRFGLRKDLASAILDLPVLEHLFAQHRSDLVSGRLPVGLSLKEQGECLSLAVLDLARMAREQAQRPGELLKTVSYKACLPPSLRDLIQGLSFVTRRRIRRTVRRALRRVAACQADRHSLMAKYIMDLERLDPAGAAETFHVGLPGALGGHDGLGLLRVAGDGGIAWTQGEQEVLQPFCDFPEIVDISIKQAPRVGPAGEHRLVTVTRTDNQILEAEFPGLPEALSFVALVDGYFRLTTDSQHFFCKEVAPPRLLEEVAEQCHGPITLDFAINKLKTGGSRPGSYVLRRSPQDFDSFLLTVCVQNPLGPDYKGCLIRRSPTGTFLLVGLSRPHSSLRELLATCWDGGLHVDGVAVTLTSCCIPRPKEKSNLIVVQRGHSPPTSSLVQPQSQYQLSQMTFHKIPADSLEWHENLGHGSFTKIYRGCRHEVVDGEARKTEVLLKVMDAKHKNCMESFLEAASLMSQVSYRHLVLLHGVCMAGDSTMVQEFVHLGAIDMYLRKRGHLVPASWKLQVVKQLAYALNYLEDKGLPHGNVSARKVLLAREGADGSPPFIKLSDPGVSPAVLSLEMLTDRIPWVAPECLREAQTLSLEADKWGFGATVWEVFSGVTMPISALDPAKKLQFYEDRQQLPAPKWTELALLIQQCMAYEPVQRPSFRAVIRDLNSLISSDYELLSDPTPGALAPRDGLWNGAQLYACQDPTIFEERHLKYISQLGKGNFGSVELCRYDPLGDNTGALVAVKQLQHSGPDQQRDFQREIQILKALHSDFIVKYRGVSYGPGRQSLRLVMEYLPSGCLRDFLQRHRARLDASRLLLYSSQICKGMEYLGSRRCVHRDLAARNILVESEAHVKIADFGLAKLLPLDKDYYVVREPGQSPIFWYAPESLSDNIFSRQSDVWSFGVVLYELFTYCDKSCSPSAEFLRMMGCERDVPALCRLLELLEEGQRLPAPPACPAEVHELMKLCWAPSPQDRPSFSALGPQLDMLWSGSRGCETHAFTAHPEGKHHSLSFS
Description: as §1, §2, §3, §4, §5
as §6, with “JAK3” for “JAK1”, “10” for “8”, “Y7” for “Y12”, “KNZ3071C,” for “KPZ3121C;”, “2” for “12.5”, “PV4080).” for “PV4775).”

Human Tyk2 kinase domain = Human Tyk2 kinase domain (Homo sapiens (Human), UniProt P29597); assay: Tyk2 Inhibition Assay (Example A, Omnia kinase fluorescence peptide substrate assay); settings: TYK2 Enzyme IC50 1 mM ATP, averaged IC50 ranges
Sequence of Human Tyk2 kinase domain (P29597 886-1187): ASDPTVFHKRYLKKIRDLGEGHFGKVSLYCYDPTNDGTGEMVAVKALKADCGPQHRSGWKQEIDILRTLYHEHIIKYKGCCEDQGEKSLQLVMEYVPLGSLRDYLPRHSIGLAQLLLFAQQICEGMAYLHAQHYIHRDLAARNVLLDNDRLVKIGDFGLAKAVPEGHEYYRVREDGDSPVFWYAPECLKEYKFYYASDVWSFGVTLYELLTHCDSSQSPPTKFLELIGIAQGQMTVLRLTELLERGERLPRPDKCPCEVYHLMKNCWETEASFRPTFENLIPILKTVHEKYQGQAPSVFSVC
Description: as §1, §2, §3, §4, §5
Compounds of Formula I were screened for their ability to inhibit Tyk2 using the general enzyme inhibition assay method, in which the assay mixture contained 1 mM ATP, 8 μM Omnia Y12 peptide (Catalog # IVGN KPZ3121C; Invitrogen Corporation, Carlsbad, Calif.) and 1 nM Tyk2 in a total volume of 25 μL. Human Tyk2 kinase domain, comprising amino acids 886 to 1187 with 10 additional histidine residues (histidine tag) on the carboxy terminus, was expressed and purified from bacculovirus in-house at Array BioPharma Inc. (Boulder, Colo.). The histidine tag was cleaved after purification using standard conditions.

[1] = JAK1 Enzyme IC50 1 mM ATP, 1 mM ATP, averaged IC50 ranges

Sequence of JAK1 (P23458 whole entry): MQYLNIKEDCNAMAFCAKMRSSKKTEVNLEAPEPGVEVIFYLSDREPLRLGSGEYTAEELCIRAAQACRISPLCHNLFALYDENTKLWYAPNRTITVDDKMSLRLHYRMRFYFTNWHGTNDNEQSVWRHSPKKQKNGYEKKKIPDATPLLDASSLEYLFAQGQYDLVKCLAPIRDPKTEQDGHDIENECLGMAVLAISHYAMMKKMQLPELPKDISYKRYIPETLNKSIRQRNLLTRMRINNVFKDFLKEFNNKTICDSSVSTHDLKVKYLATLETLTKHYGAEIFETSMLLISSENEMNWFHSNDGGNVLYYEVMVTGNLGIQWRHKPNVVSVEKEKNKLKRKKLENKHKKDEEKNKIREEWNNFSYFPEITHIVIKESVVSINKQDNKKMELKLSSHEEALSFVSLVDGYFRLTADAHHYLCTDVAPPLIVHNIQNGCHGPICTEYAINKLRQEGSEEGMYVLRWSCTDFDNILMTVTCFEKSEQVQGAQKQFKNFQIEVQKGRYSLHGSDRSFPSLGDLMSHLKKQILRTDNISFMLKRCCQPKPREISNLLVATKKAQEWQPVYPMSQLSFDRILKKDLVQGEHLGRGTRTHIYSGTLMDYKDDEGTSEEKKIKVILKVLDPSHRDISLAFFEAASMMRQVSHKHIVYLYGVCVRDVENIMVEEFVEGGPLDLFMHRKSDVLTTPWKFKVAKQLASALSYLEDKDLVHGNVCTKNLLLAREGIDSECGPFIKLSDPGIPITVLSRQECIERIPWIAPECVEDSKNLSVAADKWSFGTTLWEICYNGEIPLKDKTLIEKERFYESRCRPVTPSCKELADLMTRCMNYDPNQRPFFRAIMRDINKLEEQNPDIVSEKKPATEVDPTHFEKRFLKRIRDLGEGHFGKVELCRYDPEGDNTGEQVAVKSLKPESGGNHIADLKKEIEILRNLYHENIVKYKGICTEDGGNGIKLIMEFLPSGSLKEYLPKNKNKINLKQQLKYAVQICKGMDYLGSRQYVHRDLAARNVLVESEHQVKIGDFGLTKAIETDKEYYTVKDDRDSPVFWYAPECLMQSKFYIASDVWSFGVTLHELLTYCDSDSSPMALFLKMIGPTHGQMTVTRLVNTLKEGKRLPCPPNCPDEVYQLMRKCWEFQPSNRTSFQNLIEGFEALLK

| IC50 (JAK1) | IC50 (JAK3) | IC50 (Human Tyk2 kinase domain) | IC50 (JAK1; [1]) | SMILES |
| --- | --- | --- | --- | --- |
| 0.1 to 1 µM | 1 to 10 µM | 0.01 to 0.1 µM | – | CCC(C1CC1)n1cc(-c2nc(-c3cnn(C[C@@H](O)CO)c3)cn3nccc23)cn1 (single isomer, unassigned) [Example 213] |
| – | 1 to 10 µM | – | 0.1 to 1 µM | CCC(CC)n1cc(-c2nc(-c3cnn(CC(CO)CO)c3)cn3nccc23)cn1 [Example 61, 2-((4-(4-(1-(pentan-3-yl)-1H-pyrazol-4-yl)pyrazolo[l,5-a]pyrazin-6-yl)-1H-pyrazol-1-yl)methyl)propane-1,3-diol] |
| – | 1 to 10 µM | – | – | CC(C)[C@H](C)n1cc(-c2nc(-c3cnn(C[C@@H](O)CO)c3)cn3nccc23)cn1 [Example 80, (R)-3-(4-(4-(1-((S)-3-methylbutan-2-yl)-1H-pyrazol-4-yl)pyrazolo[1,5-a]pyrazin-6-yl)-1H-pyrazol-1-yl)propane-1,2-diol] |
| 1 to 10 µM | 1 to 10 µM | 0.1 to 1 µM | – | CC[C@@H](C)n1cc(-c2nc(-c3cnn(C(CO)CO)c3)cn3nccc23)cn1 [Example 85, (R)-2-(4-(4-(1-(sec-butyl)-1H-pyrazol-4-yl)pyrazolo[1,5-a]pyrazin-6-yl)-1H-pyrazol-1-yl)propane-1,3-diol] |
| – | – | 1 to 10 µM | 1 to 10 µM | CC1(C)CCC[C@@H]1n1cc(-c2nc(-c3cnn(C[C@@H](O)CO)c3)cn3nccc23)cn1 [Example 95, (R)-3-(4-(4-(1-((S)-2,2-dimethylcyclopentyl)-1H-pyrazol-4-yl)pyrazolo[1,5-a]pyrazin-6-yl)-1H-pyrazol-1-yl)propane-1,2-diol] |
| – | 1 to 10 µM | – | – | CCC(CC)n1cc(-c2nc(-c3cnn([C@H]4C[C@H](C(=O)NCCO)C4)c3)cn3nccc23)cn1 [Example 171, (1r,3r)-N-(2-hydroxyethyl)-3-(4-(4-(1-(pentan-3-yl)-1H-pyrazol-4-yl)pyrazolo[1,5-a]pyrazin-6-yl)-1H-pyrazol-1-yl)cyclobutanecarboxamide] |
| – | 1 to 10 µM | – | – | CC[C@H]([C@@H]1CC1(F)F)n1cc(-c2nc(-c3cnn(C[C@@H](O)CO)c3)cn3nccc23)cn1 [Example 204, (R)-3-(4-(4-(1-((R)-1-((S)-2,2-difluorocyclopropyl)propyl)-1H-pyrazol-4-yl)pyrazolo[1,5-a]pyrazin-6-yl)-1H-pyrazol-1-yl)propane-1,2-diol] |

Further lines, the compound ahead of its results:

| SMILES | IC50 (JAK1) | IC50 (JAK3) | IC50 (Human Tyk2 kinase domain) | IC50 (JAK1; [1]) |
| --- | --- | --- | --- | --- |
| CCC(CC)n1cc(-c2nc(-c3cnn([C@@H]4COC[C@H]4O)c3)cn3nccc23)cn1 (single isomer, unassigned) [Example 159] | 0.1 to 1 µM | – | – | – |
| CCC(CC)n1cc(-c2nc(-c3cnn([C@H]4COC[C@@H]4O)c3)cn3nccc23)cn1 (single isomer, unassigned) [Example 160] | 1 to 10 µM | – | – | – |
| CCC(CC)n1cc(-c2nc(-c3cnn(CC4CNC(=O)O4)c3)cn3nccc23)cn1 (centres unmarked) [Example 8, 5-((4-(4-(1-(pentan-3-yl)-1H-pyrazol-4-yl)pyrazolo[1,5-a]pyrazin-6-yl)-1H-pyrazol-1-yl)methyl)oxazolidin-2-one] | – | 1 to 10 µM | – | – |
| CCC(CC)n1cc(-c2nc(-c3cnn(C4CS(=O)(=O)C4)c3)cn3nccc23)cn1 [Example 13, 3-(4-(4-(1-(pentan-3-yl)-1H-pyrazol-4-yl)pyrazolo[1,5-a]pyrazin-6-yl)-1H-pyrazol-1-yl)thietane 1,1-dioxide] | 0.1 to 1 µM | 1 to 10 µM | 0.01 to 0.1 µM | – |
| CCC(CC)n1cc(-c2nc(-c3cnn(CCS(N)(=O)=O)c3)cn3nccc23)cn1 [Example 24, 2-(4-(4-(1-(pentan-3-yl)-1H-pyrazol-4-yl)pyrazolo[1,5-a]pyrazin-6-yl)-1H-pyrazol-1-yl)ethanesulfonamide] | 0.1 to 1 µM | 1 to 10 µM | – | – |
| CCC(CC)n1cc(-c2nc(-c3cnn(C[C@H]4CCCN4)c3)cn3nccc23)cn1 [Example 27, (R)-4-(1-(pentan-3-yl)-1H-pyrazol-4-yl)-6-(1-(pyrrolidin-2-ylmethyl)-1H-pyrazol-4-yl)pyrazolo[1,5-a]pyrazine] | 1 to 10 µM | 1 to 10 µM | – | – |
| CCC(CC)n1cc(-c2nc(-c3cnn(C[C@@H]4CCCN4)c3)cn3nccc23)cn1 [Example 28, (S)-4-(1-(pentan-3-yl)-1H-pyrazol-4-yl)-6-(1-(pyrrolidin-2-ylmethyl)-1H-pyrazol-4-yl)pyrazolo[1,5-a]pyrazine] | 1 to 10 µM | 1 to 10 µM | – | – |
| CCC(CC)n1cc(-c2nc(-c3cnn(C4CCN(C(C)=O)CC4)c3)cn3nccc23)cn1 [Example 31, 1-(4-(4-(4-(1-(pentan-3-yl)-1H-pyrazol-4-yl)pyrazolo[1,5-a]pyrazin-6-yl)-1H-pyrazol-1-yl)piperidin-1-yl)ethanone] | 0.1 to 1 µM | 1 to 10 µM | 0.01 to 0.1 µM | – |
| CCC(CC)n1cc(-c2nc(-c3cnn(C4CCN(S(C)(=O)=O)CC4)c3)cn3nccc23)cn1 [Example 32, 6-(1-(1-(methylsulfonyl)piperidin-4-yl)-1H-pyrazol-4-yl)-4-(1-(pentan-3-yl)-1H-pyrazol-4-yl)pyrazolo[1,5-a]pyrazine] | 0.01 to 0.1 µM | 1 to 10 µM | – | – |
| CCC(CC)n1cc(-c2nc(-c3cnn(C4CCN(C(=O)COC)CC4)c3)cn3nccc23)cn1 [Example 33, 2-methoxy-1-(4-(4-(4-(1-(pentan-3-yl)-1H-pyrazol-4-yl)pyrazolo[1,5-a]pyrazin-6-yl)-1H-pyrazol-1-yl)piperidin-1-yl)ethanone] | 0.1 to 1 µM | 1 to 10 µM | – | – |
| CCC(CC)n1cc(-c2nc(-c3cnn(C4CCN(C(=O)NC)CC4)c3)cn3nccc23)cn1 [Example 34, N-methyl-4-(4-(4-(1-(pentan-3-yl)-1H-pyrazol-4-yl)pyrazolo[1,5-a]pyrazin-6-yl)-1H-pyrazol-1-yl)piperidine-1-carboxamide] | 0.01 to 0.1 µM | 1 to 10 µM | 0.01 to 0.1 µM | – |
| CCC(CC)n1cc(-c2nc(-c3cnn(C4CCN(C(=O)CN)CC4)c3)cn3nccc23)cn1 [Example 36, 2-amino-1-(4-(4-(4-(1-(pentan-3-yl)-1H-pyrazol-4-yl)pyrazolo[1,5-a]pyrazin-6-yl)-1H-pyrazol-1-yl)piperidin-1-yl)ethanone] | 0.1 to 1 µM | 1 to 10 µM | – | – |
| CCC(CC)n1cc(-c2nc(-c3cnn(C4CN(S(C)(=O)=O)C4)c3)cn3nccc23)cn1 [Example 37, 6-(1-(1-(methylsulfonyl)azetidin-3-yl)-1H-pyrazol-4-yl)-4-(1-(pentan-3-yl)-1H-pyrazol-4-yl)pyrazolo[1,5-a]pyrazine] | 0.1 to 1 µM | 1 to 10 µM | 0.01 to 0.1 µM | – |
| CCC(CC)n1cc(-c2nc(-c3cnn(C4CN(C(C)=O)C4)c3)cn3nccc23)cn1 [Example 38, 1-(3-(4-(4-(1-(pentan-3-yl)-1H-pyrazol-4-yl)pyrazolo[1,5-a]pyrazin-6-yl)-1H-pyrazol-1-yl)azetidin-1-yl)ethanone] | 0.1 to 1 µM | 1 to 10 µM | – | – |
| CCC1(n2cc(-c3nc(-c4cnn(C)c4)cn4nccc34)cn2)CN(S(=O)(=O)C(F)(F)F)C1 [Example 48, 4-(1-(3-ethyl-1-((trifluoromethyl)sulfonyl)azetidin-3-yl)-1H-pyrazol-4-yl)-6-(1-methyl-1H-pyrazol-4-yl)pyrazolo[1,5-a]pyrazine] | 0.01 to 0.1 µM | 1 to 10 µM | – | – |
